From patent US20200270588A1, “GLUCOSYL TRANSFERASE POLYPEPTIDES AND METHODS OF USE” (Syngenta Participations AG, priority 2017, published 2020)

Tests used:
Format in all cases: biochemical
[1] = target: T1, Zea mays bx9 glucosyl transferase (C-terminally his tagged SEQ ID NO: 1) (Zea mays, UniProt B4G072); test: UDP-Glo glucosyl transferase assay, purified enzyme; conditions: for Activity: herbicide mM: V 0.300, VI 0.250, VII 0.210, IV, VIII, XI, XXI, XX, XVIII, XVI, XV, XIV 0.200, others 1.000
T1 construct: His tag (C); made in house; host or cells: E. coli BL21 (DE3), pET24a
T1 sequence (B4G072 1-462): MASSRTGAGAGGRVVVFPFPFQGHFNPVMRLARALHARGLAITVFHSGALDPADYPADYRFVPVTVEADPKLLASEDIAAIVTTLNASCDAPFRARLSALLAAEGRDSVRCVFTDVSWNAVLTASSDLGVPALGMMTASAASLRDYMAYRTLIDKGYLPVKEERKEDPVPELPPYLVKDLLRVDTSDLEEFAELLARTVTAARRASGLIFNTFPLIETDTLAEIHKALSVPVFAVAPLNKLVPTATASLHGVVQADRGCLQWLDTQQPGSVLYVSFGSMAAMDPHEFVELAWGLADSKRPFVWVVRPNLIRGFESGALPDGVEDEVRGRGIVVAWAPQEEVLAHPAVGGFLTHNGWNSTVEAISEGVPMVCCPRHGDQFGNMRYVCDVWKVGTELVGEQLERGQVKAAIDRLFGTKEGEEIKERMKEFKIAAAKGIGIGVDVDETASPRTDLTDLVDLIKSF
Description: (§1) Glucosyl transferase activity is assayed via measurement of acceptor substrate-dependent production of UDP from ultrapure UDP-glucose using the Promega UDP-Glo™ method and according to the manufacturer's instructions. Assays are run in 96 well microtiter plates.
(§2) Enzyme, typically at a stock concentration of ˜2 mg/ml is diluted to an appropriate concentration in 50 mM K^+ Hepes buffer at pH7.5 containing 0.5 mg/mL bovine serum albumin (BSA) and 5 ul aliquots of this diluted enzyme added to each well of a Perkin Elmer white ½ area 96 well plate. […] Assays are run for an appropriate time (usually 10 to 60 min) so that the amount of UDP formed lies within the most nearly linear part of the UDP standard curve and are stopped with the addition and mixing of 25 ul UDP-Glo™ detection reagent (prepared as described below). Plates are then incubated at room temperature for 60 minutes and then read in a luminescence plate reader (Perkin Elmer Envision 2130 Multilabel Reader). A UDP standard curve is run alongside each set of assays and reagent blank control assays run with DMSO in place of test herbicide. Typically, 300 pmol of UDP corresponds to a Relative Luminescence Unit (RLU) reading of about 1.5E7 and the response curve between 0 and 600 pmol is fitted to a polynomial function (see for example FIG. 2).
(§3) The UDP-Glo™ reagents are made up and used according to the manufacturer's instructions. Thus, Nucleotide Detection Buffer and ATP are combined to make nucleotide detection reagent (NDR) dispensed into aliquots and frozen to be freshly thawed before use.
(§4) Km and kcat values in respect of UDP-glucose are derived by carrying out experiments to measure initial rates over a suitable range of concentrations of UDP glucose out at a fixed near saturating concentration of acceptor substrate. Best fit values of kcat, Km and kcat/Km are obtained by direct fitting of the data to the Michaelis-Menten equation using Graphpad Prism™ software.

[2] = target: T2, SEQ ID NO 22, mutant of Zea mays bx9 glucosyl transferase (Zea mays, UniProt B4G072, A334K/F21Y/M279F/S117V/T220P); test: as above; conditions: lower block, concentration printed only in upper block: V 0.300, VII 0.210; IV, VIII, XI, XXI, XX, XVIII, XVI, XV, XIV 0.200; others 1.000 mM
T2 construct: His tag (C); made in house
Description: as §1, §2, §3, §4
(§5) Variants of C-terminally his tagged SEQ ID No:1 (w/t bx9 from Zea mays), exemplified as SEQ ID 16-30, were cloned, purified and assayed as described in Example 1. FIG. 4 depicts the data from some experiments to determine the kinetic parameters of some of these variants in respect of herbicide VI and table 12 summarizes the estimates of kinetic parameters obtained from further such experiments in respect of a range of herbicides.
(§6) Table 13 summarizes the results obtained from assays, run as described in Example 1, using a variety of alcohol and aminal PSII herbicides as substrates of the Zea mays bx9 w/t (i.e. C-terminally his tagged SEQ ID no 1) and various mutants of the same, selected from SEQ ID NO: 16-30). All of these proteins were C-terminally his-tagged, expressed and purified as described in Example 1. Assays were run and analyzed as described in example 1. It is seen that various of the mutations herein and combinations thereof led to significant improvements (over the w/t bx9 protein) in catalytic activity versus various of the herbicides and that these improvements are often of sufficient magnitude to be useful for conferring improved herbicide tolerance upon crop. This is especially the case given that even the unmutated w/t bx9 enzyme which has only modest glucosyl transferase activity (for example against compounds V and VI) was nevertheless adequately active to confer significant herbicide tolerance in the glass house (as shown in example 9) even without mutational improvement. It is also seen that particular mutations can lead to very much improved activity in respect of some chemistries but not to others but that, overall, there is at least one variant within the scope of the current invention that provides significant and useful improvement in tolerance to each of the chemistries tested.

[3] = target: T3, SEQ ID NO 21, mutant of Zea mays bx9 glucosyl transferase (Zea mays, UniProt B4G072, A334K/F21Y/L194V/M279F/S117V); test: as above; conditions: lower block, concentration printed only in upper block: V 0.300, VII 0.210; IV, VIII, XI, XXI, XX, XVIII, XVI, XV, XIV 0.200; others 1.000 mM
T3 construct: His tag (C); made in house
Description: as §1, §2, §3, §4, §5, §6

[4] = target: T4, SEQ ID NO 17, zmBX9 S117V, M279F, A334K mutant (Zea mays, UniProt B4G072, A334K/M279F/S117V); test: as above; conditions: for Activity: herbicide mM: V 0.300, VI 0.250, VII 0.210, IV, VIII, XI, XXI, XX, XVIII, XVI, XV, XIV 0.200, others 1.000
T4 construct: polypeptides were the C-terminally his-tagged; His tag (C); made in house
Description: as §1, §2, §3, §4, §5, §6

[5] = target: T5, SEQ ID NO 23, mutant of Zea mays bx9 glucosyl transferase (Zea mays, UniProt B4G072, A334K/F21Y/L194C/M279F/S117V); test: as above; conditions: lower block, concentration printed only in upper block: V 0.300, VII 0.210; IV, VIII, XI, XXI, XX, XVIII, XVI, XV, XIV 0.200; others 1.000 mM
T5 construct: His tag (C); made in house
Description: as §1, §2
(§7) The UDP-Glo™ reagents are made up and used according to the manufacturer's instructions. Thus, Nucleotide Detection Buffer and ATP are combined to make nucleotide detection reagent (NDR) dispensed into aliquots and frozen to be freshly thawed before use. […]
as §6

[6] = target: T6, SEQ ID NO 19, mutant of Zea mays bx9 glucosyl transferase (Zea mays, UniProt B4G072, A281K/A334K/L194V/M279F/S117V); test: as above; conditions: herbicide mM: V 0.300, VI 0.250, VII 0.210; IV, VIII, XI, XXI, XX, XVIII, XVI, XV, XIV 0.200; others 1.000
T6 construct: His tag (C); made in house
Description: as §1, §2, §7, §6

[7] = target: T7, SEQ ID NO 18, mutant of Zea mays bx9 glucosyl transferase (Zea mays, UniProt B4G072, A281K/A334K/F21Y/M279F/S117V); test: as above; conditions: herbicide mM: V 0.300, VI 0.250, VII 0.210; IV, VIII, XI, XXI, XX, XVIII, XVI, XV, XIV 0.200; others 1.000
T7 construct: His tag (C); made in house
Description: as §1, §2, §7, §6

[8] = target: T8, SEQ ID NO 20, mutant of Zea mays bx9 glucosyl transferase (Zea mays, UniProt B4G072, A281K/A334K/F21Y/L194V/M279F/S117V); conditions: lower block, concentration printed only in upper block: V 0.300, VII 0.210; IV, VIII, XI, XXI, XX, XVIII, XVI, XV, XIV 0.200; others 1.000 mM
T8 construct: His tag (C); made in house
Description: as §1
as §2, with “herbicide.” for “herbicide. Typically, 300 pmol of UDP corresponds to a Relative Luminescence Unit (RLU) reading of about 1.5E7 and the response curve between 0 and 600 pmol is fitted to a polynomial function (see for example FIG. 2).”
as §3, §4
All of these proteins were C-terminally his-tagged, expressed and purified as described in Example 1. Assays were run and analyzed as described in example 1.

Row | Compound | Activity [1] | Activity [2] | Activity [3] | Activity [4] | Activity [5] | Activity [6] | Activity [7] | Activity [8] | kcat ([1]; 0.5 mM UDP-glucose, 25 C, pH 7.5, DMSO reagent blank as control) | increase in activity over bx9 w/t protein [4]
1 | C[C@@H]1C(O)N(c2cc(C(C)(C)C)on2)C(=O)[C@@H]1C (stereo partly drawn) [VIII] | −0.002 pmol/sec/pmol enzyme | 0.061 pmol/sec/pmol enzyme | 0.016 pmol/sec/pmol enzyme | 0.008 pmol/sec/pmol enzyme | 0.017 pmol/sec/pmol enzyme | 0.077 pmol/sec/pmol enzyme | 0.124 pmol/sec/pmol enzyme | 0.145 pmol/sec/pmol enzyme | – | –
2 | C[C@@H]1C(=O)N(c2noc(C(C)(C)C)c2C#N)C(O)[C@H]1C (stereo partly drawn) [XXVI] | −0.001 pmol/sec/pmol enzyme | 0.073 pmol/sec/pmol enzyme | 0.040 pmol/sec/pmol enzyme | 0.020 pmol/sec/pmol enzyme | 0.034 pmol/sec/pmol enzyme | 0.095 pmol/sec/pmol enzyme | 0.051 pmol/sec/pmol enzyme | 0.143 pmol/sec/pmol enzyme | – | –
3 | C[C@H]1C(O)N(c2cc(C(C)(C)F)ncn2)C(=O)N1C (stereo partly drawn) [XIV] | −0.001 pmol/sec/pmol enzyme | – | – | 0.037 pmol/sec/pmol enzyme | 0.196 pmol/sec/pmol enzyme | – | – | 0.411 pmol/sec/pmol enzyme | – | –
4 | COc1ccc2c(c1)OC(O)C(=O)N2O (stereo not drawn) [DIMBOA, 2,4-dihydroxy-7-methoxy-1,4-benzoxazin-3-one] | – | – | – | – | – | – | – | – | 20.82 s⁻¹ | –
5 | C[C@@H]1C(O)N(c2noc(C(C)(C)C)c2C#N)C(=O)[C@@H]1C (stereo partly drawn) [XIII] | −0.001 pmol/sec/pmol enzyme | 0.073 pmol/sec/pmol enzyme | 0.040 pmol/sec/pmol enzyme | 0.020 pmol/sec/pmol enzyme | 0.034 pmol/sec/pmol enzyme | 0.095 pmol/sec/pmol enzyme | 0.051 pmol/sec/pmol enzyme | 0.143 pmol/sec/pmol enzyme | – | –
6 | COC1=C(C)C(O)N(c2cc(C(C)(C)C)ncn2)C1=O (stereo not drawn) [X] | −0.001 pmol/sec/pmol enzyme | – | – | – | – | 0.102 pmol/sec/pmol enzyme | – | 0.137 pmol/sec/pmol enzyme | – | –
7 | CC1C(O)N(c2cc(C(F)(F)F)c(Cl)cn2)C(=O)N1C (stereo not drawn) [XIX] | −0.001 pmol/sec/pmol enzyme | 0.315 pmol/sec/pmol enzyme | 0.234 pmol/sec/pmol enzyme | 0.157 pmol/sec/pmol enzyme | 0.207 pmol/sec/pmol enzyme | 0.363 pmol/sec/pmol enzyme | 0.467 pmol/sec/pmol enzyme | 0.414 pmol/sec/pmol enzyme | – | –
8 | CN1CC(O)N(c2cc(C(F)(F)F)n(C)n2)C1=O (stereo not drawn) [XII] | 0.007 pmol/sec/pmol enzyme | – | – | 0.018 pmol/sec/pmol enzyme | – | – | – | – | – | –
9 | CC1C(=O)N(c2cc(C(F)(F)F)n(C)n2)C(O)[C@@H]1C (stereo partly drawn) [XVII] | −0.001 pmol/sec/pmol enzyme | 0.134 pmol/sec/pmol enzyme | 0.195 pmol/sec/pmol enzyme | 0.083 pmol/sec/pmol enzyme | 0.096 pmol/sec/pmol enzyme | 0.331 pmol/sec/pmol enzyme | 0.237 pmol/sec/pmol enzyme | 0.402 pmol/sec/pmol enzyme | – | –
10 | Cc1cnc(N2C(=O)N(C)C(C)C2O)cc1C(F)(F)F (stereo not drawn) [XX] | −0.001 pmol/sec/pmol enzyme | 0.563 pmol/sec/pmol enzyme | 0.338 pmol/sec/pmol enzyme | 0.244 pmol/sec/pmol enzyme | 0.249 pmol/sec/pmol enzyme | 0.662 pmol/sec/pmol enzyme | 0.751 pmol/sec/pmol enzyme | 0.698 pmol/sec/pmol enzyme | – | –
11 | C[C@@H]1C(O)N(c2cc(C(C)(C)C)on2)C(=O)N1C (stereo partly drawn) [VII] | 0.000 pmol/sec/pmol enzyme | 0.042 pmol/sec/pmol enzyme | – | – | – | – | 0.087 pmol/sec/pmol enzyme | 0.049 pmol/sec/pmol enzyme | – | –
12 | CSc1nnc(C(C)(C)C)c(=O)n1N [metribuzin] | – | – | – | – | – | – | – | – | – | 1.3-1.5 ×
13 | CON1C(=O)N(c2cc(C(F)(F)F)c(C)cn2)C(O)[C@@H]1C (stereo partly drawn) [XV] | – | 1.530 pmol/sec/pmol enzyme | 1.711 pmol/sec/pmol enzyme | 0.833 pmol/sec/pmol enzyme | 1.641 pmol/sec/pmol enzyme | 1.391 pmol/sec/pmol enzyme | – | – | – | –
14 | CC1CC(O)N(c2ncc(C(F)(F)F)s2)C1=O (stereo not drawn) [XVI] | – | 0.285 pmol/sec/pmol enzyme | – | 0.073 pmol/sec/pmol enzyme | – | – | 0.359 pmol/sec/pmol enzyme | 0.687 pmol/sec/pmol enzyme | – | –
